Source: article PMC11469747 (Clinical and Translational Science, 2024)
pIC50: −log10 of the molar value.

What was measured:
recombinant human UGT2B7 = assay: Phase II enzyme determination with recombinant human UGT; type: in vitro ADME; conditions: rotundic acid 2.5 μM, UGT2B7 0.25 mg protein/mL, 20 min
CYP2C8 [1] = target: T1, CYP2C8 (Homo sapiens, UniProt P10632); assay: Inhibitory DDI evaluation, cocktail incubation in HLM; type: in vitro ADME
T1 sequence (P10632 1-490): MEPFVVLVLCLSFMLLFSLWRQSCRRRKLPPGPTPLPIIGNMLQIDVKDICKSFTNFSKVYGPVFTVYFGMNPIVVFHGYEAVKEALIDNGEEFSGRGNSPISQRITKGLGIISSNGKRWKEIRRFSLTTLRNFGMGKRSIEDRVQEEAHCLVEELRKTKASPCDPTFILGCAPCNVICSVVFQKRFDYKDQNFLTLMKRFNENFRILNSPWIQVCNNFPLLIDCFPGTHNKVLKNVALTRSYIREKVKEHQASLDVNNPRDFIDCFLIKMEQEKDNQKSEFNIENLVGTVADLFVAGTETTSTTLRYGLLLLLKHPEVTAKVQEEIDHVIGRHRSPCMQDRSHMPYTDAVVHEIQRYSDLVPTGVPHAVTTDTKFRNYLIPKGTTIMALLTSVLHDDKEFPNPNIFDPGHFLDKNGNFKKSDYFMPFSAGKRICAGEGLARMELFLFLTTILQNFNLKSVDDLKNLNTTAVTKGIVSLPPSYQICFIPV

CYP2E1 = CYP2E1 (Homo sapiens, UniProt P05181); assay: as above; type: in vitro ADME
recombinant human UGT1A1 = assay: Phase II enzyme determination with recombinant human UGT; type: in vitro ADME; conditions: rotundic acid 2.5 μM, UGT1A1 0.25 mg protein/mL, 20 min
CYP1A2 = target: T2, CYP1A2 (Homo sapiens, UniProt P05177); assay: Inhibitory DDI evaluation, cocktail incubation in HLM; type: in vitro ADME
T2 sequence (P05177 1-516): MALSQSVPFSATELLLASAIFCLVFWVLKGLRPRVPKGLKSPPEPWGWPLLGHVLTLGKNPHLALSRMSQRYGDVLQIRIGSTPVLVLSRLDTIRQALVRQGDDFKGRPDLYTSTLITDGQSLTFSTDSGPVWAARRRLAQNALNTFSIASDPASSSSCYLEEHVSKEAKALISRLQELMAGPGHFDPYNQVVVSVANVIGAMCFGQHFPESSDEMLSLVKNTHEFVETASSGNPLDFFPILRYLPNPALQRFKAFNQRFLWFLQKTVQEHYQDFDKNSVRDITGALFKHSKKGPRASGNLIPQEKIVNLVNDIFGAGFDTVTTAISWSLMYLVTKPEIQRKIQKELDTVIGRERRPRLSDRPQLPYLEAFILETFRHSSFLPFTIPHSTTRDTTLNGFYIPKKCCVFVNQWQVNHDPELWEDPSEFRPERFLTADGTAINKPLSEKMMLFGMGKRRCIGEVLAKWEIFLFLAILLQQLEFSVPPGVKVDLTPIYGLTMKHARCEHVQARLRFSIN

[2] = Metabolic stability study in HLM; type: in vitro ADME, human; conditions: for stability in the negative control assay: without HLM, NADPH regenerating system and UDPGA, up to 120 min, 37°C
recombinant human UGT1A6 = assay: Phase II enzyme determination with recombinant human UGT; type: in vitro ADME; conditions: rotundic acid 2.5 μM, UGT1A6 0.25 mg protein/mL, 20 min
recombinant human UGT1A4 = assay: as above; type: in vitro ADME; conditions: rotundic acid 2.5 μM, UGT1A4 0.25 mg protein/mL, 20 min
CYP3A4/5 = assay: Phase I enzyme determination in HLM with CYP-specific inhibitor ketoconazole; type: in vitro ADME, human; conditions: HLM with six CYP-specific inhibitors
CYP2B6 = target: T3, CYP2B6 (Homo sapiens, UniProt P20813); assay: Inhibitory DDI evaluation, cocktail incubation in HLM; type: in vitro ADME
T3 sequence (P20813 1-491): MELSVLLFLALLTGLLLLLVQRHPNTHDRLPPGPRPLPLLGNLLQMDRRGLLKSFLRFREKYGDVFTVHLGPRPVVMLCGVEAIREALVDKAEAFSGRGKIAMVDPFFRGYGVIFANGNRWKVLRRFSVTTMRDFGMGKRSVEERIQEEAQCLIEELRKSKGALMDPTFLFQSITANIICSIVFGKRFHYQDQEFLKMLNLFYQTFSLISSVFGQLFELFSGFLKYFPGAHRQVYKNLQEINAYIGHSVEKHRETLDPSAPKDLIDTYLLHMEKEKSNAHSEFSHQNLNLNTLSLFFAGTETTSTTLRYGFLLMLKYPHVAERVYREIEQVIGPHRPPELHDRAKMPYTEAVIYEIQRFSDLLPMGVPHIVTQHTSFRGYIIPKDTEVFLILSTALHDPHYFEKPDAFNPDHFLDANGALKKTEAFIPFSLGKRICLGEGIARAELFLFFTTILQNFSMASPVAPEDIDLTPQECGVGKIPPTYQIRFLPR

[3] = test system: CYP1A2, CYP2B6, CYP2C8, CYP2C9, CYP2D6, CYP2E1, CYP3A4/5; assay: Inhibitory DDI evaluation, cocktail incubation in HLM, all probe reactions; type: in vitro ADME; conditions: human, pooled human liver microsomes
CYP2C9 = CYP2C9 (Homo sapiens, UniProt P11712); assay: Inhibitory DDI evaluation, cocktail incubation in HLM; type: in vitro ADME
CYP2D6 = CYP2D6 (Homo sapiens, UniProt P10635); assay: as above; type: in vitro ADME
recombinant human UGT1A9 = assay: Phase II enzyme determination with recombinant human UGT; type: in vitro ADME; conditions: rotundic acid 2.5 μM, UGT1A9 0.25 mg protein/mL, 20 min
CYP2C8 [4] = target: T1, CYP2C8; assay: Phase I enzyme determination in HLM with CYP-specific inhibitor quercetin; conditions: quercetin 10 μM
[5] = cited from earlier work

CYP2D6, sequence (P10635 whole entry): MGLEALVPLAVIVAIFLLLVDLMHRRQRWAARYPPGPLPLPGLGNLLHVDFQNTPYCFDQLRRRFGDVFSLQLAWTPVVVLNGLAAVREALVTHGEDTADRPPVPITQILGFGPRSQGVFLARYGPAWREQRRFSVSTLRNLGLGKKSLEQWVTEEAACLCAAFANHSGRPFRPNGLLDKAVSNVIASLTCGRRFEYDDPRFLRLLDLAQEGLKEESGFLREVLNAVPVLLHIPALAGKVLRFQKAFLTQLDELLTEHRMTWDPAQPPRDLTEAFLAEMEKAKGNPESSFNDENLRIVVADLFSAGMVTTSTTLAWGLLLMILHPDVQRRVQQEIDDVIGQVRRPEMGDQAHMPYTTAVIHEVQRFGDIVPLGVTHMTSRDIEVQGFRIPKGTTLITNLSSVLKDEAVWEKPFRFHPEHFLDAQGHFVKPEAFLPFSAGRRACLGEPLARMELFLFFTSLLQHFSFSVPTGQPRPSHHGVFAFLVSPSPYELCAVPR
CYP2E1, sequence (P05181 whole entry): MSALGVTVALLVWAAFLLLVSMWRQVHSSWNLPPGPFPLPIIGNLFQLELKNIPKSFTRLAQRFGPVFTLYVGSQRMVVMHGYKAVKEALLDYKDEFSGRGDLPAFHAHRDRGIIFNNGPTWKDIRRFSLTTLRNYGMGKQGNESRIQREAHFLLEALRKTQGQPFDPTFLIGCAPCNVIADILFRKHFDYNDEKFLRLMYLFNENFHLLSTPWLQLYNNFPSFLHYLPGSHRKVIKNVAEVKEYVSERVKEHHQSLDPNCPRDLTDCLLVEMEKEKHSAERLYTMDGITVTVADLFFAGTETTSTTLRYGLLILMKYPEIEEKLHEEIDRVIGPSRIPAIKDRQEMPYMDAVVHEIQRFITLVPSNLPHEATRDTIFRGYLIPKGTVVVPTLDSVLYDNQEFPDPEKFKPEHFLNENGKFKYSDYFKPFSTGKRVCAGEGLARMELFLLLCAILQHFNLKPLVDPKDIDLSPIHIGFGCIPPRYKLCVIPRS
CYP2C9, sequence (P11712 whole entry): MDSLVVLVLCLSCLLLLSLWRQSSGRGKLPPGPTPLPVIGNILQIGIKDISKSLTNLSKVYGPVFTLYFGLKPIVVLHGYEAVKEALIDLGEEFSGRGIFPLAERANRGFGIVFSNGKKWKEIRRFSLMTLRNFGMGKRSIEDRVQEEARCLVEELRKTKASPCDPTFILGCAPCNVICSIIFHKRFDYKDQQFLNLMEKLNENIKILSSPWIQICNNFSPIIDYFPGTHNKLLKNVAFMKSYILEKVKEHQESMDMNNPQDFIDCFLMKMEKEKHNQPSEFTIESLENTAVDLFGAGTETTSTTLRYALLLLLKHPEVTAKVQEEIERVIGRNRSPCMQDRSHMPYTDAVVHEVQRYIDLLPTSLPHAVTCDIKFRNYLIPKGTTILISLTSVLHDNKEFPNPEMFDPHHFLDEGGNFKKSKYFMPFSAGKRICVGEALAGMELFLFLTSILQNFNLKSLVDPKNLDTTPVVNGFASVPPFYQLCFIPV

Structure (SMILES) | pIC50 (CYP2C8 [1]) | pIC50 (CYP2E1) | pIC50 (CYP1A2) | stability in the negative control assay [2] | enzymes catalyzing hydroxylation (CYP3A4/5) | pIC50 (CYP2B6) | IC50 at 20 min [3] | pIC50 (CYP2C9) | pIC50 (CYP2D6) | also measured
C[C@@H]1CC[C@]2(C(=O)O)CC[C@]3(C)C(=CC[C@@H]4[C@@]5(C)CC[C@H](O)[C@@](C)(CO)[C@@H]5CC[C@]43C)[C@@H]2[C@]1(C)O [rotundic acid] | < 4.30 | < 4.30 | < 4.30 | stable | almost exclusively catalyzed by CYP3A4/5 | < 4.30 | > 50 µM | < 4.30 | < 4.30 | generation of glucuronidated rotundic acid (recombinant human UGT2B7): not detected; generation of glucuronidated rotundic acid (recombinant human UGT1A1): not detected; metabolized after incubation for 120 min ([2]; ~1 μM, HLM, UDPGA absent (UDPGA-)): ~ 50%; compound remaining after 120 min ([2]; ~1 μM, HLM, absence of the NADPH regeneration system (NADPH-)): approximately 25%; rotundic acid remained after 120 min ([2]; ~1 μM, HLM, normal group, under regular conditions): less than 10%; generation of glucuronidated rotundic acid (recombinant human UGT1A6): not detected; generation of glucuronidated rotundic acid (recombinant human UGT1A4): detected; generation of glucuronidated rotundic acid (recombinant human UGT1A9): not detected
O=c1c(O)c(-c2ccc(O)c(O)c2)oc2cc(O)cc(O)c12 [quercetin] |  |  |  |  |  |  |  |  |  | generation rate of PE + O (1) (CYP2C8 [4]): approximately 45%; generation rate of PE + O (2) (CYP2C8 [4]): approximately 60%
C[C@@H]1CC[C@]2(C(=O)O[C@@H]3O[C@H](CO)[C@@H](O)[C@H](O)[C@H]3O)CC[C@]3(C)C(=CC[C@@H]4[C@@]5(C)CC[C@H](O)[C@@](C)(CO)[C@@H]5CC[C@]43C)[C@@H]2[C@]1(C)O [pedunculoside] | < 4.30 | < 4.30 | < 4.30 | stable | mainly catalyzed by CYP3A4/5 and partly by CYP2C8 | < 4.30 | > 50 µM | < 4.30 | < 4.30 | Cmax ([5]; plasma, after oral administration, converted from ng/mL): 154 to 768 nM; elimination half-life ([5]; rats, oral or intravenous): short
